1 compound from patent US20250236892A1, “Inhibition of NHEJ, MMEJ, and 53BP1 Promotes High Levels of HDR” (Integrated DNA Technologies, Inc., priority 2024, published 2025) can be followed below.

The test system of assay [1] is HEK293 cells. Nature of the assay: HDR insertion of a 6-nt EcoRI sequence at SpCas9 RNP induced DSBs with ssDNA donor, repair events measured by NGS. It counts as cell-based. The method, then: FIG. 1 depicts inhibition of NHEJ, MMEJ, and 53BP1 leads to high levels of HDR at SpCas9 induced DSBs. HEK293 cells were treated with Cas9 RNP (2 μM) targeting 5 different sites (FIG. 1A: AADACL3; FIG. 1B: ANKRD50; FIG. 1C: ABCD4: FIG. 1D: AR; FIG. 1E: AKAP6) in the genome alongside ssDNA donor template with or without Ubv-A protein (25 μM). Cells were then plated in media containing no DMSO, DMSO control, ART, V2, or ART+V2 for 24 hours before exchanging for fresh media (see Methods for concentrations). The graphs show the percent of each repair event under each condition measured by NGS with error bars indicating SD from three replicates. Likely MMEJ deletions are determined based on the presence of microhomology of two nucleotides or greater at the ends of the deletion.
For HDR using ssDNA templates in HEK293 cells genome editing was mediated via IDT Alt-R Cas9 ribonucleoprotein, IDT Alt-R AsCas12a Ultra, or EURECA-V (a ErCas12a variant) (RNP) complexes delivered by Lonza nucleofection in concert with single-stranded oligodeoxynucleotide (ssODN) HDR repair templates. The specific repair event was the insertion of a 6-nt EcoRI sequence (5′-GAATTC-3′) at either the Cas9, AsCas12a, or ErCas12a cut site. The sgRNAs for Cas9 and crRNAs for AsCas12a corresponding to the protospacer sequences listed in Table 2 were ordered from IDT (Table 2). The HDR donor templates for Cas9 editing contain 40-nt homology arms (HA) flanking a 6 nt EcoR1 cut site insert. The HDR donor templates for AsCas12a were similar except for slightly different homology arm lengths (40 nt 5′ HA and 45 nt 3′ HA)^66. The HDR donor sequences listed in Table 3 were ordered from IDT as Alt-R HDR donor oligos (Table 3). The repair templates are homologous to the non-targeting strand of dsDNA, where targeting/non-targeting is defined with respect to the guide RNA sequence and the presence of the NGG/TTTV PAM sequence identifying the non-target strand. […]

Assay [2] concerns HEK293 cells. Nature of the assay: CAR knock-in at the TRAC locus with dsDNA Alt-R HDR donor block, PCR and Fragment Analyzer. It counts as cell-based. As to conditions: enhancer used alone; ART558 10 μM, V2 1 μM, Ubv-A protein 25 μM, Ubv-A mRNA 25 nM; Cas9 RNP or Cas9 mRNA. The method, then:
FIG. 3A depicts percent CAR knock-in (KI) at the TRAC locus in HEK293 cells treated with 1 μg dsDNA Alt-R HDR donor block, 2 μM Cas9 RNP, and either 25 μM tagless Ubv-A protein or 25 nM Ubv-A mRNA or no Ubv-A and incubated in media containing DMSO (no enhancer), MMEJ inhibitor ART558 (ART, 10 μM), NHEJ inhibitor Alt-R HDR enhancer V2 (V2, 1 μM), or both ART558 and V2. Percent KI was calculated using PCR followed by analysis using an Agilent Fragment Analyzer and data processing using PROSize 3.0 software to calculate the relative molar concentrations between wild-type and edited products. Error bars indicate SD, n=3. […]
HEK293 cells were harvested and resuspended in SF Cell Line Nucleofector Solution (Lonza, V4SC-2096) at a concentration of approximately 16,500 cells/μl and 18 μl of this cell suspension was used for each nucleofection. […] To quantify knock-in percentages, genomic DNA flanking the sgRNA target site was amplified by PCR, PCR products were separated on a Fragment Analyzer (Agilent Technologies), and the percentage of edited and unedited alleles was calculated using PROSize 3.0 software.
Recent publications have shown that inhibition of MMEJ through inhibition of DNA polymerase theta using small molecule inhibitors increases the rate of HDR and reduces undesired edits^16,27. […] Genomic DNA was isolated approximately 48 hours after delivery and editing was analyzed by NGS. […]

As to `Cc1cccc(N(C)C(=O)[C@@H]2[C@H](O)CCN2c2nc(C)cc(C(F)(F)F)c2C#N)c1` [ART558, reference compound], the HDR result in assay [1] (10 μM ART558 alone in media 24 hours, 2 μM Cas9 RNP, 2 μM ssDNA, 5 sites) is “minimal boost in HDR”. For the same compound, the “HDR, site with largest increase” value in assay [1] (10 μM ART558 alone, AKAP6 site, highest level of likely MMEJ repair events in media only condition) is recorded as “AKAP6”. Also, the “rates of HDR and likely MMEJ events” value in assay [1] (10 μM ART558 in combination with 1 μM V2, compared with ART558 plus Ubv-A) was “the effect is less pronounced”. The “HDR (CAR knock-in)” value in assay [2] is “minimal effect on HDR”.
